According to US20120046357A1, “Benzamide and Napthamide Derivatives Inhibiting Nuclear Factor-Kappa (B) - (NK-kB)” (Profectus Biosciences, Inc., priority 2009, published 2012):
Structures can show the parent of a compound that is named as a salt. Where two headings read alike, the source gives them in different places.

Legend:
NF-κB = assay: NF-κB/293/GFP reporter cell assay (TNF-α induced GFP expression); format: cell-based; conditions: for EC50: pTRH1-NF-κB-dscGFP reporter, 2 h pretreatment, 20 ng/ml TNF-α 18 h, read-out: NF-KB/293/GFP EC50
Experimental: Two reporter cell assays were used to determine the ability of the compound of Example 10 to inhibit NF-κB driven transcription. The first assay was a 293-cell based assay with a stably integrated pNF-κB-luc reporter plasmid containing 3 NF-κB promoter elements. The second assay was a 293-cell based assay with a stably integrated pTRH1-NF-κB-dscGFP reporter containing 4 NF-κB promoter elements. Cells were treated with 0, 0.2, 1, 10, 20 and 40 μM of the compound of Example 10 for 2 hours then were induced with 20 ng/ml TNF-α for 18 hours. Following the induction, luminescence or fluorescence was quantified using a Beckman-Coulter 2300 plate reader. […] These values represent the median value generated from three independent experiments. As a control, 0.5% DMSO treated and untreated cells were compared to verify that the compound of Example 10 had no effect on the expression of luciferase or in the readout of the assay. There was a slight decrease in the output from the assay in the DMSO treated population although it was not statistically significant. As a result of the controls, the decrease in activity in the drug treated samples was compared to the DMSO control sample.

[1] = tested on: IL-6 release from RAW264.7 cells; assay: LPS-stimulated IL-6 release from RAW264.7 cells (ELISA); format: cell-based, mouse; conditions: 2 h pretreatment, 1 μg/mL LPS 20-24 h, read-out: RAW 264.7 IL-6 release EC50
Experimental: RAW 264.7 cells were seeded at 4×10^4 cells per well n complete growth medium in 96 well white TC plates with clear bottoms one day prior to the assay. The next day the cells were washed once and 100 μL fresh growth media was added. Cells were pretreated with 0.5 μL from a 6 point 200× dilution series of the test compounds in DMSO for 2 hours. Following pretreatment with the drugs, the inflammatory response was induced by adding 5 μL of a 20 μg/mL solution of LPS (Sigma). The cells were incubated in the presence of the drugs and 1 μg/mL LPS for another 20-24 hours. Typically after treatment the total DMSO was […] of the culture volume and the final concentrations of the compounds were approximately: 40, 20, 10, 1, 0.2 and 0 μM depending on the MW of each compound. Modified dilution series were prepared as needed to get adequate dose response curves without changing the % DMSO. Samples were run in duplicate or triplicate and included DMSO treated control wells with and without LPS stimulation. Drugs with a known activity such as Parthenolide or DHMEQ were run as experimental controls. After 20-24 hours LPS activation, the media supernatant was collected from the cells and replaced with fresh media. The supernatant samples were cleared by centrifugation at 1,000×g for 5 minutes, transferred to fresh storage plates, and stored frozen at −30° C.
After determining the appropriate supernatant dilutions experimentally, mIL-6 levels in the supernatants were quantified using Quantikine™ mouse IL-6 immunoassay (R&D Systems) according to the manufacturer's protocol. […] diluted in Calibrator Diluent were added to 50 μL of Assay Diluent in microplate wells pre-coated with an anti-mouse IL-6 capture antibody. Controls included a calibrated positive IL-6 control sample, non-specific binding (NSB) wells containing Calibrator Diluent but no IL-6, and a recombinant mouse IL-6 standard dilution series (10-1000 pg/mL). The plates were incubated at room temperature for 2 hours with shaking and then washed 5 times with 400 μL 1× Wash Buffer. […] anti-mouse IL-6 antibody was added to each well to detect IL-6 captured on the plate. The plates were incubated at room temperature for 2 hours and then washed 5 times with 400 μL 1× Wash Buffer. Equal volumes of Color Reagents A and B were mixed and 100 μL of this HRP Substrate Solution was added to each well on the plate. The blue color was allowed to develop for 30 minutes and then the reaction was stopped using 100 μL of Stop Solution yielding a yellow color. Absorbance at 450 nm with a reference wavelength subtracted at 595 nm was recorded using a Becton-Dickinson DTX 880 Multimode Detector.
The concentration of mIL-6 in the unknown samples was determined from a curve-fit of the mIL-6 standard absorbance data and multiplying by the dilution factor. The maximum activity achieved in the absence of the inhibitor (DMSO+LPS treated wells) was arbitrarily given a value of 100%; likewise the minimum activity in the absence of the stimulant (no LPS) was assigned a value of 0%. Inhibition of the amount of mIL-6 cytokine released in the drug treated wells was calculated relative to the maximum activation in the DMSO+LPS treated control wells (ie. % inhibition=100−(drug+LPS treated)/(DMSO+LPS treated)). Dose response curves were used to determine the effective concentration to inhibit 50% of the mIL-6 cytokine released (IC50) by means of a SigmaPlot macro which fits a sigmoidal dose-response curve to the (log 10) μM concentration versus % inhibition. […] This technique yields an objective value for the IC50 provided that 50% inhibition was approached at the concentrations tested. FIG. 5 illustrates the effect of the compound of Example 10 on inhibiting IL-6 release.

p65 (RelA) = target: T1, p65 (RelA) (Homo sapiens, UniProt Q04206); assay: TransAM NF-κB family DNA binding ELISA, p65; format: biochemical; conditions: binding to NF-κB consensus oligonucleotide
T1 construct: purchased Active Motif
T1 sequence (Q04206 whole entry): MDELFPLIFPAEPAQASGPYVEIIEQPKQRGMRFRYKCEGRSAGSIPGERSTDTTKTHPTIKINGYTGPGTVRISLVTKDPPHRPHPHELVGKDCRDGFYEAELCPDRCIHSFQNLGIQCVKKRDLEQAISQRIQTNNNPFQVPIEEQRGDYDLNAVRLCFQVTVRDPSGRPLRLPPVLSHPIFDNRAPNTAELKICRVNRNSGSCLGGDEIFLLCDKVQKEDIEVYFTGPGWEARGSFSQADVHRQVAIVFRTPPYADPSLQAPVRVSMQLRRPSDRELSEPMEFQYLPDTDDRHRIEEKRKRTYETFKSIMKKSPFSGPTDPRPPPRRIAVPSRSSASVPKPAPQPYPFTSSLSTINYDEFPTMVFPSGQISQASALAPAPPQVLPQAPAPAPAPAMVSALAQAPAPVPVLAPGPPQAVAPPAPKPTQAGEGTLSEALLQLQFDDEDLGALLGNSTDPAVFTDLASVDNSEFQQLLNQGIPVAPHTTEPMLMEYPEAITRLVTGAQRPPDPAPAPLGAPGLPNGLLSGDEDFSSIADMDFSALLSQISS
Experimental: The binding activity of NF-κB heterodimer or homodimer subunits from activated nuclear extracts or purified recombinant NF-κB proteins exposed to the drug compounds was evaluated using the TransAM NF-κB Family binding ELISA (Active Motif). 3-5 μg of nuclear extracts from TNFα activated Hela or Raji cells (Active Motif) or 20 ng of purified recombinant proteins (p65 and p50 from Active Motif, p52 from Santa Cruz) were incubated for 1 hour at room temperature with 20 μL drug compounds diluted in Complete Lysis buffer without DTT. Treated samples were then transferred to 30 μL Complete Binding Buffer (with DTT) in microplate wells pre-coated with the NF-κB consensus oligonucleotide. […] The plate was incubated for 1 hour at room temperature with gentle shaking and then washed 3 times with 200 μL 1× Wash Buffer. NF-κB p65, p50, p52, RelB, or c-Rel subunits bound to the plate were detected with 100 μL of the primary antibody (diluted 1:1000 in 1× Antibody Buffer) specific for that subunit. The plate was incubated for 1 hour at room temperature and then washed 3 times with 200 μL 1× Wash Buffer. Next, 100 μL of a HRP conjugated goat anti-rabbit antibody (diluted 1:1,000 in 1× Antibody Buffer) was added to each well. The plate was incubated for 1 hour at room temperature and then washed 4 times with 200 μL 1× Wash Buffer. 100 μL of room temperature Developing Solution was added to each well. The reaction was allowed to develop for 2-10 minutes until a medium dark blue color developed (depending on the subunit activity in the lot of extract or lot of recombinant protein used) and then the reaction was stopped with 100 μL Stop Solution yielding a yellow color. Absorbance was recorded using a Becton-Dickinson DTX 880 Multimode Detector at 450 nm with a reference wavelength subtracted at 620 nm. FIGS. 2, 3 and 4 illustrate the effect of Example 10 on inhibiting RelA, RelB and c-Rel binding to NF-κB sites.

[2] = Homo sapiens, HEK293, 293 cells
[3] = Mus musculus, RAW264.7, RAW264.7 cells

| SMILES | EC50 (NF-κB; [2]) | EC50 [1, 3] | IC50 (p65 (RelA)) | IC50 (NF-κB; Homo sapiens, HEK293, median of three independent experiments, 293 cells, 20 ng/ml TNF-α, read-out: median IC50, inhibition of expression of the Green fluorescent protein gene) | EC50 (NF-κB; 293 cells, trifluoroacetate) | EC50 ([1]; RAW264.7 cells, trifluoroacetate) |
| --- | --- | --- | --- | --- | --- | --- |
| O=C(NC1=CC(=O)C2OC2C1O)c1ccc(C(F)(F)F)cc1O (racemic) [Example 1, 2-hydroxy-N-(2-hydroxy-5-oxo-7-oxabicyclo[4.1.0]hept-3-en-3-yl)-4-(trifluoromethyl)benzamide] | 3.4 µM | 3100 nM | 66.3 µM | – | – | – |
| O=C(NC1=CC(=O)C2OC2C1O)c1ccc(Cl)cc1O (racemic) [Example 2, (±)-4-chloro-2-hydroxy-N-(2-hydroxy-5-oxo-7-oxabicyclo[4.1.0]hept-3-en-3-yl)benzamide] | 7 µM | 1300 nM | 26.3 µM | – | – | – |
| Cc1ccc(C(=O)NC2=CC(=O)C3OC3C2O)c(O)c1 (racemic) [Example 3, (±)-2-hydroxy-N-(2-hydroxy-5-oxo-7-oxabicyclo[4.1.0]hept-3-en-3-yl)-4-methylbenzamide] | 9 µM | 480 nM | 17 µM | – | – | – |
| Cc1cccc(C(=O)NC2=CC(=O)C3OC3C2O)c1O (racemic) [Example 4, (±)-2-hydroxy-N-(2-hydroxy-5-oxo-7-oxabicyclo[4.1.0]hept-3-en-3-yl)-3-methylbenzamide] | 18 µM | 760 nM | 36.3 µM | – | – | – |
| COc1ccc(C(=O)NC2=CC(=O)C3OC3C2O)c(O)c1 (racemic) [Example 5, (±)-2-hydroxy-N-(2-hydroxy-5-oxo-7-oxabicyclo[4.1.0]hept-3-en-3-yl)-4-methoxybenzamide] | 6.1 µM | 420 nM | 14.2 µM | – | – | – |
| O=C(NC1=CC(=O)C2OC2C1O)c1cccc(Cl)c1O (racemic) [Example 6, (±)-3-chloro-2-hydroxy-N-(2-hydroxy-5-oxo-7-oxabicyclo[4.1.0]hept-3-en-3-yl)benzamide] | 14 µM | 2500 nM | 19.4 µM | – | – | – |
| O=C(NC1=CC(=O)C2OC2C1O)c1cc2ccccc2cc1O (racemic) [Example 7, (±)-3-hydroxy-N-(2-hydroxy-5-oxo-7-oxabicyclo[4.1.0]hept-3-en-3-yl)-2-naphthamide] | 4.7 µM | 1400 nM | 488 µM | – | – | – |
| O=C(NC1=CC(=O)C2OC2C1O)c1ccc2ccccc2c1O (racemic) [Example 8, (±)-1-hydroxy-N-(2-hydroxy-5-oxo-7-oxabicyclo[4.1.0]hept-3-en-3-yl)-2-naphthamide] | 7.1 µM | 300 nM | 45.2 µM | – | – | – |
| O=C(NC1=CC(=O)C2OC2C1O)c1cc(Br)ccc1O (racemic) [Example 9, (±)-5-bromo-2-hydroxy-N-(2-hydroxy-5-oxo-7-oxabicyclo[4.1.0]hept-3-en-3-yl)benzamide] | 5.2 µM | 6500 nM | 17.7 µM | – | – | – |
| CN(C)c1ccc(C(=O)NC2=CC(=O)C3OC3C2O)c(O)c1 (racemic) [Example 10, (±)-4-(dimethylamino)-2-hydroxy-N-(2-hydroxy-5-oxo-7-oxabicyclo[4.1.0]hept-3-en-3-yl)benzamide] | 2.5 µM | 440 nM | 3.9 µM | 2500 nM | – | – |
| COc1ccc2cc(O)c(C(=O)NC3=CC(=O)C4OC4C3O)cc2c1 (racemic) [Example 11, (±)-3-hydroxy-N-(2-hydroxy-5-oxo-7-oxabicyclo[4.1.0]hept-3-en-3-yl)-7-methoxy-2-naphthamide] | 5 µM | 850 nM | 479 µM | – | – | – |
| O=C(NC1=CC(=O)C2OC2C1O)c1cc2cc(Br)ccc2cc1O (racemic) [Example 15, (±)-7-bromo-3-hydroxy-N-(2-hydroxy-5-oxo-7-oxabicyclo[4.1.0]hept-3-en-3-yl)-2-naphthamide] | 2.4 µM | 220 nM | 241 µM | – | – | – |
| COc1c(C(=O)NC2=CC(=O)C3OC3C2O)ccc(F)c1F (racemic) [Example 16, (±)-3,4-difluoro-N-(2-hydroxy-5-oxo-7-oxabicyclo[4.1.0]hept-3-en-3-yl)-2-methoxybenzamide] | 2.6 µM | 270 nM | 1.5 µM | – | – | – |
| Cc1ccc(C(C)C)c(C(=O)NC2=CC(=O)C3OC3C2O)c1O (racemic) [Example 17, (±)-2-hydroxy-N-(2-hydroxy-5-oxo-7-oxabicyclo[4.1.0]hept-3-en-3-yl)-6-isopropyl-3-methylbenzamide] | 6.7 µM | 480 nM | 295 µM | – | – | – |
| CN(C)c1ccc(C(=O)NC2=CC(=O)C3OC3C2O)c(O)c1 (racemic) [Example 19, (±)-4-(dimethylamino)-2-hydroxy-N-(2-hydroxy-5-oxo-7-oxabicyclo[4.1.0]hept-3-en-3-yl)benzamide trifluoroacetate] | – | – | 3 µM | – | 1.7 µM | 740 nM |
| COc1cc(N(C)C)ccc1C(=O)NC1=CC(=O)C2OC2C1O (racemic) [Example 20, (±)-4-(dimethylamino)-N-(2-hydroxy-5-oxo-7-oxabicyclo[4.1.0]hept-3-en-3-yl)-2-methoxybenzamide] | 1.3 µM | 240 nM | 0.91 µM | – | – | – |
